# Data as given in US10829466B2, “Stilbene derivative and preparation method thereof” (BEIJING INSTITUTE OF TECHNOLOGY, priority 2015, dated 2020).
# Entries after “also recorded” stand apart in the source; their conditions may differ.
# Assays:
# [1] = tested on: neurogenesis in rat hippocampus; assay: Detection of neurogenesis in rat hippocampus by BrdU labeling (DAB immunohistochemistry); format: in vivo; conditions: under the test conditions of the embodiments, same dose
# From the text: Example 36: Detection of Neurogenesis in Rat Hippocampus by BrdU (5-Bromo-2-deoxy Uridine, 5-bromodeoxyuridine) Labeling
# Experimental animals: 10-week-old SD male rats having a body weight of about 300 g are purchased. The rats are used in experiments one week after being adapted to the environment in an animal room. Experimental groups: control group, drug group. 2-3 rats per group. Experimental reagent: injection oil is used to dissolve a compound to be tested. Rates in the control group are injected with the same dose of dissolving oil.
# Test method: intraperitoneal injection is carried out 28 days at the injection dose of 0.5 ml-1 ml each time. Dose: 4 mg/Kg.
# 1) marker injection: BrdU (dissolved in sterile saline solution at a concentration of 10 mg/mL) solution is injected intraperitoneally into rats. (For rats with different body weights, the injection dose of BrdU is 50 mg·Kg^−1, injection is carried out twice every 2 hour; the intraperitoneal injection 24 hours before anesthesia ends.
# 2) Anesthesia: Anesthesia is performed by intraperitoneal injection of sodium pentobarbital solution into rats. (For rats with different body weights, the injection dose of sodium pentobarbital is usually 70 mg·Kg^−1.)
# 3) Cardiac perfusion: cardiac perfusion with normal saline is performed according to a general method.
# 4) Taking of brain tissues: The heads of the rats are separated from the bodies with surgical forceps and scissors, and then the muscles and membrane tissues at the top of the skulls are removed and brains are then gently peeled from the skulls. The separated brains are soaked in 4% paraformaldehyde for 24-48 hours.
# 5) Dehydration of brain tissues: the fixed tissues are soaked with a 20% sucrose PBS solution for more than 72 hours, and then the brain tissues are soaked with a 30% sucrose PBS solution for more than 72 hours.
# 6) Frozen section: the brain tissues are cut into […] thick sections by a general coronal section procedure.
# 7) DAB immunohistochemistry step: DNA denaturation is carried out and the sections are transferred to a 24-well plate (pH 7.4) perfused with 0.1 M PBS. The brain sections are incubated with 1% H2O2 for 30 minutes to remove […]; the sections are then treated with a 2M HCl solution for 30 minutes at room temperature to denature them. After completion of the denaturation, the brain sections are immersed in a 0.1 M sodium borate (pH 8.5) solution for 5 minutes and rinsed twice; the brain sections are incubated in 0.5% PBST for 1 hour at room temperature, and then are blocked for 1 hour with a serum blocking solution on a shaker at room temperature, and the serum blocking solution is from the same source as a secondary antibody; the samples are treated on the shaker with a BrdU primary antibody overnight at 4° C., and the BrdU primary antibody is diluted with the blocking solution; the samples are incubated with the biotinylated secondary antibody IgG for 2 hours at room temperature; a C (ABC kit) solution is incubated at room temperature for 2 hours; finally, after 3 to 5 minutes of color development by the DAB kit, the samples are mounted by using a PVP mounting medium and then dried, and finally the experimental results are detected under a microscope.
# The dose-effect relationships of different compounds is further tested according to the method of Example 36, and the compounds include WS-54 (E-4-isobutyrylamino-3′,4′-methylenedioxy-stilbene), WS-69 (E-4-Methylsulfonamino-3′,4′-methylenedioxy-stilbene), WS-70 (E-4-Benzamino-3′,4′-methylenedioxy-stilbene), and WS-74 (E-4-Cyclopropylformamino-3′,4′-methylenedioxy-stilbene).
# [2] = tested on: neurogenesis in rat hippocampus; assay: BrdU and NeuN fluorescence double staining; format: in vivo
# Description: Example 37: Experimental Procedure of BrdU and NeuN Fluorescence Double Staining
# The samples are obtained in the same manner as an Example 34. First, the DNA denaturation is performed, and the sections are transferred to a HCl solution perfused with 2 N, and treated at 37° C. for 60 minutes to be denatured. After completion of the denaturation, the brain sections are immersed in a 0.1 M sodium borate (pH 8.5) solution for 5 minutes and rinsed twice; the brain sections are then blocked for 1 hour with a serum blocking solution on a shaker at room temperature, and the serum blocking solution is from the same source as a secondary antibody; the samples are treated on the shaker with BrdU (1:500, Millipore) and NeuN (1:500, Abcam) primary antibodies overnight at 4° C., and the primary antibodies are diluted with the blocking solution; the samples are incubated with fluorescent secondary antibodies goat anti-mouse and goat anti-rabbits at room temperature (1:50, Zhongshanjinqiao) for 2 hours at room temperature in a dark place; the samples are mounted by using a fluorescent anti-quenching PVP mounting medium and then dried, and finally the experimental results are detected under a microscope. Control group and drug group (low dose L, 2 mg/Kg; medium dose M, 4 mg/Kg).
# HEK293 = assay: In vitro cytotoxicity experiment (MTT, cell survival); format: cell-based; conditions: HEK293, in vitro test, FIG. 3
# Description: Example 35: In Vitro Cytotoxicity Experiment the Experimental Cell Line is HEK293
# Cells are cultured in a 96-well plate at a cell concentration of 5000/well. After 24 hours of cell culture, the drug treatment is performed and the experiment is carried out on two groups: the control group is added with DMSO with the same concentration as that for the experimental group; in the experimental group, each compound is tested at three doses of low, medium and high doses (100 μM; 500 μM; 1000 μM), and five parallels are tested at each dose; in the blank group, a complete medium is added with a compound to be tested with the same concentration as that for the experimental group. Constant temperature incubation is carried out for 24 h in a CO2 incubator, MTT with a final concentration of 0.5 mg/mL is then added; 4 hours later, 200 μL of DMSO solution is added, and the absorbance is measured at 490 nm. The cell survival is calculated according to the absorbance; Survival %=(Average concentration−Blank concentration)/(Average control concentration−Blank concentration)*100%.
# Reference is made to FIG. 3 which illustrates an in vitro cytotoxicity test chart of a novel stilbene derivative according to an example of embodiments of the present invention.
compound,measurement,setting,value
"CC(=O)Nc1ccc(/C=C/c2ccc3c(c2)OCO3)cc1 [WS-6, E-4-acetylamino-3′,4′-methylenedioxy-stilbene]",neurogenesis activity (in words),[1],better neurogenesis activity
same,dose relationship of NeuN+BrdU+ spots,[2]; 4 mg/Kg over 2 mg/Kg,can further enhance neurogenesis at the dose of 4 mg/Kg over the dose of 2 mg/Kg
same,BrdU and NeuN double staining: neurogenesis,"[2]; low dose 2 mg/Kg and medium dose 4 mg/Kg, FIG. 9",can promote neurogenesis
same,neuronal cytotoxicity / neurotoxicity (in words),HEK293,further reduced in neurotoxicity as compared with WS-61; also recorded: greatly reduced
